Test system: Raji (Burkitt's) lymphoma cells
Assay: MTT assay for 4-day viability of Raji (Burkitt's) lymphoma cells
Assay type: cell-based
Details: Homo sapiens, 96 h, Raji (Burkitt's) lymphoma cells highly expressing MCT1, estimated EC50 given as bin, read-out: approximate potency (EC50)
Text: Specific Examples of compounds of the invention, with estimated EC50 values determined using an MTT assay for 4-day viability of Raji (Burkitt's) lymphoma cells, a cell line known to highly express MCT1 and to be sensitive to small molecule MCT inhibitors,^4 are shown in Table 8. Assay protocols follow those described in the literature.^4 Other assays that are not described here but that are standard in the field, such as an assay for competitive inhibition of transport of radiolabeled lactic acid, an MCT substrate, may also be useful in establishing mechanism of action of these compounds.

SMILES	EC50 [nM]
CC(C)c1cc(=O)c2c(OCc3ccccc3CO)cc(OCc3ccc4ccccc4n3)cc2o1 [Example 20, 5-((2-(hydroxymethyl)benzyl)oxy)-2-isopropyl-7-(quinolin-2-ylmethoxy)-4H-chromen-4-one]	≤ 100
CC(C)c1cc(=O)c2c(OCc3ccccc3CO)cc(OCc3cnc(Cl)c4ccccc34)cc2o1 [Example 25, 7-((1-chloroisoquinolin-4-yl)methoxy)-5-((2-(hydroxymethyl)benzyl)oxy)-2-isopropyl-4H-chromen-4-one]	≤ 100
CC(C)c1cc(=O)c2c(OCc3ccccc3CO)cc(OCc3cccc4ccccc34)cc2o1 [Example 8, 5-((2-(hydroxymethyl)benzyl)oxy)-2-isopropyl-7-(naphthalen-1-ylmethoxy)-4H-chromen-4-one]	≤ 100
O=c1cc(C2CC2)oc2cc(OCc3cccnc3C(F)(F)F)cc(OCc3ccccc3CO)c12 [Example 23, 2-cyclopropyl-5-((2-(hydroxymethyl)benzyl)oxy)-7-((2-(trifluoromethyl)pyridin-3-yl)methoxy)-4H-chromen-4-one]	≤ 100
CC(C)c1cc(=O)c2c(-c3ccc(CO)cc3)cc(OCc3cccc4ccccc34)cc2o1 [Example 45]	1000 to 10000
CC(C)c1cc(=O)c2c(OCCCCO)cc(OCc3ccnc4ccccc34)cc2o1 [Example 30, 5-(4-hydroxybutoxy)-2-isopropyl-7-(quinolin-4-ylmethoxy)-4H-chromen-4-one]	≤ 100
CC(C)c1cc(=O)c2c(OCCCCO)cc(OCc3cccc4ccccc34)cc2o1 [Example 5, 5-(4-hydroxybutoxy)-2-isopropyl-7-(naphthalen-1-ylmethoxy)-4H-chromen-4-one]	100 to 1000
CC(C)c1cc(=O)c2c(Nc3cccc(CO)c3)cc(OCc3cccc4ccccc34)cc2o1 [Example 49, 5-((3-(hydroxymethyl)phenyl)amino)-2-isopropyl-7-(naphthalen-1-ylmethoxy)-4H-chromen-4-one]	≥ 10000

Continued, values first:

EC50 [nM]	SMILES
≤ 100	CC(C)c1cc(=O)c2c(OCc3ccccc3CO)cc(OCc3ccccn3)cc2o1 [Example 13, 5-((2-(hydroxymethyl)benzyl)oxy)-2-isopropyl-7-(pyridin-2-ylmethoxy)-4H-chromen-4-one]
100 to 1000	Cc1cc(=O)c2c(OCc3ccccc3CO)cc(Oc3ccnc4ccccc34)cc2o1 [Example 31, 5-((2-(hydroxymethyl)benzyl)oxy)-2-methyl-7-(quinolin-4-yloxy)-4H-chromen-4-one]
1000 to 10000	Cc1cc(=O)c2c(OCCCO)cc(Oc3ccnc4ccccc34)cc2o1 [Example 1, 5-(3-hydroxypropoxy)-2-methyl-7-(quinolin-4-yloxy)-4H-chromen-4-one]
1000 to 10000	CC(C)c1cc(=O)c2c(-c3cc(CO)ccc3F)cc(OCc3cccc4ccccc34)cc2o1 [Example 40, 5-(2-fluoro-5-(hydroxymethyl)phenyl)-2-isopropyl-7-(naphthalen-1-ylmethoxy)-4H-chromen-4-one]
≥ 10000	CC(C)c1cc(=O)c2c(NCCCCCO)cc(OCc3cccc4ccccc34)cc2o1 [Example 47, 5-((5-hydroxypentyl)amino)-2-isopropyl-7-(naphthalen-1-ylmethoxy)-4H-chromen-4-one]
100 to 1000	CC(C)c1cc(=O)c2c(OCc3ccccc3CO)cc(OCc3cncnc3)cc2o1 [Example 33, 5-((2-(hydroxymethyl)benzyl)oxy)-2-isopropyl-7-(pyrimidin-5-ylmethoxy)-4H-chromen-4-one]
100 to 1000	O=c1cc(C2CC2)oc2cc(OCc3cccc4ccccc34)cc(OCc3ccccc3CO)c12 [Example 22, 2-cyclopropyl-5-((2-(hydroxymethyl)benzyl)oxy)-7-(naphthalen-1-ylmethoxy)-4H-chromen-4-one]
1000 to 10000	O=c1cc(-c2ccccc2)oc2cc(OCc3cccc4ccccc34)cc(OCCCO)c12 [Example 28, 5-(3-hydroxypropoxy)-7-(naphthalen-1-ylmethoxy)-2-phenyl-4H-chromen-4-one]

Reference: US9994555B2, “Chromenone inhibitors of monocarboxylate transporters” (THE SCRIPPS RESEARCH INSTITUTE, priority 2015, dated 2018)
